Experimental data from patent US20210045385A1, “PYRIDAZINONE-SUBSTITUTED KETOXIMES AS HERBICIDES” (FMC Corporation, priority 2018, published 2021).

What was measured:
Type in all cases: in vivo
[1] = test system: ragweed (common ragweed, Ambrosia elatior); assay: Test A preemergence, visual plant response rating; details: for Ragweed plant response rating: 125 g ai/ha, preemergence, 0 to 100 scale, 0 no effect, 100 complete control; for Ragweed plant response rating (0 to 100 scale): 500 g ai/ha Preemergence, approx. 10 days
Procedure, shortened: (§1)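 Ratings 0–100 (100 = complete control), visual, vs untreated controls at ~10 days. Application pre- or postemergence; solvent mixture with surfactant; loam/sand medium.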

kochia (Kochia scoparia) [2] = assay: Test A preemergence, visual plant response rating; details: for Kochia plant response rating: 125 g ai/ha, preemergence, 0 to 100 scale, 0 no effect, 100 complete control; for Kochia plant response rating (0 to 100 scale): 500 g ai/ha Preemergence, approx. 10 days
Procedure, shortened: as §1

[3] = test system: Italian ryegrass (Lolium multiflorum); assay: Test A preemergence, visual plant response rating; details: for Ryegrass, Italian plant response rating: 125 g ai/ha, preemergence, 0 to 100 scale, 0 no effect, 100 complete control; for Ryegrass, Italian plant response rating (0 to 100 scale): 500 g ai/ha Preemergence, approx. 10 days
Procedure, shortened: as §1

[4] = test system: barnyardgrass (Echinochloa crus-galli); assay: Test A preemergence, visual plant response rating; details: for Barnyardgrass plant response rating: 125 g ai/ha, preemergence, 0 to 100 scale, 0 no effect, 100 complete control; for Barnyardgrass plant response rating (0 to 100 scale): 500 g ai/ha Preemergence, approx. 10 days
Procedure, shortened: as §1

[5] = test system: pigweed (Amaranthus retroflexus); assay: Test A preemergence, visual plant response rating; details: for Pigweed plant response rating: 125 g ai/ha, preemergence, 0 to 100 scale, 0 no effect, 100 complete control; for Pigweed plant response rating (0 to 100 scale): 500 g ai/ha Preemergence, approx. 10 days
Procedure, shortened: as §1

[6] = test system: foxtail, giant (giant foxtail, Setaria faberii); assay: Test A preemergence, visual plant response rating; details: for Foxtail, Giant plant response rating: 125 g ai/ha, preemergence, 0 to 100 scale, 0 no effect, 100 complete control; for Foxtail, Giant plant response rating (0 to 100 scale): 500 g ai/ha Preemergence, approx. 10 days
Procedure, shortened: as §1

rice (Oryza sativa) = assay: Test B flooded paddy test, visual plant response rating; details: 250 g ai/ha, Flood, applied to paddy water, 2-leaf stage, evaluated after 13 to 15 days
Procedure, shortened: (§2)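 Rice, umbrella sedge, ducksalad and barnyardgrass grown to 2-leaf stage; pots flooded 3 cm above soil and compound applied directly to paddy water, depth maintained.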

[7] = test system: barnyardgrass (Echinochloa crus-galli); assay: as above; details: 250 g ai/ha, Flood, applied to paddy water, 2-leaf stage, evaluated after 13 to 15 days
Procedure, shortened: as §2

[8] = test system: ducksalad (Heteranhera limosa); assay: as above; details: 250 g ai/ha, Flood, applied to paddy water, 2-leaf stage, evaluated after 13 to 15 days
Procedure, shortened: as §2

[9] = test system: sedge, umbrella (small-flower umbrella sedge, Cyperus difformis); assay: as above; details: 250 g ai/ha, Flood, applied to paddy water, 2-leaf stage, evaluated after 13 to 15 days
Procedure, shortened: as §2

[10] = test system: ragweed (common ragweed, Ambrosia elatior); assay: Test A postemergence, visual plant response rating; details: for Ragweed plant response rating (0 to 100 scale): 500 g ai/ha, postemergence, 0 is no effect, 100 is complete control; for Ragweed plant response rating: Postemergence, 125 g ai/ha, 0 to 100 scale (0 no effect, 100 complete control)
Procedure, shortened: as §1

corn (Zea mays) = assay: Test A postemergence, visual plant response rating; details: for Corn plant response rating (0 to 100 scale): 500 g ai/ha, postemergence, 0 is no effect, 100 is complete control; for Corn plant response rating: Postemergence, 125 g ai/ha, 0 to 100 scale (0 no effect, 100 complete control)
Procedure, shortened: as §1

kochia (Kochia scoparia) [11] = assay: Test A postemergence, visual plant response rating; details: for Kochia plant response rating (0 to 100 scale): 500 g ai/ha, postemergence, 0 is no effect, 100 is complete control; for Kochia plant response rating: Postemergence, 125 g ai/ha, 0 to 100 scale (0 no effect, 100 complete control)
Procedure, shortened: as §1

[12] = test system: wheat (Triticum aestivum); assay: Test A postemergence, visual plant response rating; details: for Wheat plant response rating (0 to 100 scale): 500 g ai/ha, postemergence, 0 is no effect, 100 is complete control; for Wheat plant response rating: Postemergence, 125 g ai/ha, 0 to 100 scale (0 no effect, 100 complete control)
Procedure, shortened: as §1

[13] = test system: Italian ryegrass (Lolium multiflorum); assay: Test A postemergence, visual plant response rating; details: for Ryegrass, Italian plant response rating (0 to 100 scale): 500 g ai/ha, postemergence, 0 is no effect, 100 is complete control; for Ryegrass, Italian plant response rating: Postemergence, 125 g ai/ha, 0 to 100 scale (0 no effect, 100 complete control)
Procedure, shortened: as §1

[14] = test system: barnyardgrass (Echinochloa crus-galli); assay: Test A postemergence, visual plant response rating; details: for Barnyardgrass plant response rating (0 to 100 scale): 500 g ai/ha, postemergence, 0 is no effect, 100 is complete control; for Barnyardgrass plant response rating: Postemergence, 125 g ai/ha, 0 to 100 scale (0 no effect, 100 complete control)
Procedure, shortened: as §1

[15] = test system: pigweed (Amaranthus retroflexus); assay: Test A postemergence, visual plant response rating; details: for Pigweed plant response rating (0 to 100 scale): 500 g ai/ha, postemergence, 0 is no effect, 100 is complete control; for Pigweed plant response rating: Postemergence, 125 g ai/ha, 0 to 100 scale (0 no effect, 100 complete control)
Procedure, shortened: as §1

[16] = test system: blackgrass (Alopecurus myosuroides); assay: Test A postemergence, visual plant response rating; details: for Blackgrass plant response rating (0 to 100 scale): 500 g ai/ha, postemergence, 0 is no effect, 100 is complete control; for Blackgrass plant response rating: Postemergence, 125 g ai/ha, 0 to 100 scale (0 no effect, 100 complete control)
Procedure, shortened: as §1

[17] = test system: foxtail, giant (giant foxtail, Setaria faberii); assay: Test A postemergence, visual plant response rating; details: for Foxtail, Giant plant response rating (0 to 100 scale): 500 g ai/ha, postemergence, 0 is no effect, 100 is complete control; for Foxtail, Giant plant response rating: Postemergence, 125 g ai/ha, 0 to 100 scale (0 no effect, 100 complete control)
Procedure, shortened: as §1

[18] = test system: galium (catchweed bedstraw, Galium aparine); assay: Test A postemergence, visual plant response rating; details: for Galium plant response rating (0 to 100 scale): 500 g ai/ha, postemergence, 0 is no effect, 100 is complete control; for Galium plant response rating: Postemergence, 125 g ai/ha, 0 to 100 scale (0 no effect, 100 complete control)
Procedure, shortened: as §1

SMILES	Ragweed plant response rating [1]	Ragweed plant response rating (0 to 100 scale) [1]	Kochia plant response rating (kochia (Kochia scoparia) [2])	Kochia plant response rating (0 to 100 scale) (kochia (Kochia scoparia) [2])	Ryegrass, Italian plant response rating [3]	Ryegrass, Italian plant response rating (0 to 100 scale) [3]	Barnyardgrass plant response rating [4]	Barnyardgrass plant response rating (0 to 100 scale) [4]	Pigweed plant response rating [5]	Pigweed plant response rating (0 to 100 scale) [5]	Foxtail, Giant plant response rating [6]	Foxtail, Giant plant response rating (0 to 100 scale) [6]	Plant response rating, Rice (0 to 100 scale, 0 is no effect, 100 is complete control) (rice (Oryza sativa))	Plant response rating, Barnyardgrass (0 to 100 scale, 0 is no effect, 100 is complete control) [7]	Plant response rating, Ducksalad (0 to 100 scale, 0 is no effect, 100 is complete control) [8]	Plant response rating, Sedge, Umbrella (0 to 100 scale, 0 is no effect, 100 is complete control) [9]	Ragweed plant response rating (0 to 100 scale) [10]	Ragweed plant response rating [10]	Corn plant response rating (0 to 100 scale) (corn (Zea mays))	Corn plant response rating (corn (Zea mays))	also measured
CCc1ccccc1C(=NOC)c1c(O)c(C)nn(C)c1=O [Compound 37]	10	80	0	80	40	60	0	20	40	90	30	80	0	0	0	0	80	60	30	0	Kochia plant response rating (0 to 100 scale) (kochia (Kochia scoparia) [11]): 80; Kochia plant response rating (kochia (Kochia scoparia) [11]): 60; Wheat plant response rating (0 to 100 scale) [12]: 10; Wheat plant response rating [12]: 0; Ryegrass, Italian plant response rating (0 to 100 scale) [13]: 90; Ryegrass, Italian plant response rating [13]: 80; Barnyardgrass plant response rating (0 to 100 scale) [14]: 20; Barnyardgrass plant response rating [14]: 10; Pigweed plant response rating (0 to 100 scale) [15]: 90; Pigweed plant response rating [15]: 70; Blackgrass plant response rating (0 to 100 scale) [16]: 80; Blackgrass plant response rating [16]: 60; Foxtail, Giant plant response rating (0 to 100 scale) [17]: 70; Foxtail, Giant plant response rating [17]: 30; Galium plant response rating (0 to 100 scale) [18]: 90; Galium plant response rating [18]: 80
CO/N=C(\c1cc(C)ccc1Cl)c1c(O)c(C)nn(C)c1=O [Compound 38]	30	30	0	20	0	0	0	0	0	0	0	10	0	0	0	0	70	60	20	10	Kochia plant response rating (0 to 100 scale) (kochia (Kochia scoparia) [11]): 50; Kochia plant response rating (kochia (Kochia scoparia) [11]): 10; Wheat plant response rating (0 to 100 scale) [12]: 0; Wheat plant response rating [12]: 0; Ryegrass, Italian plant response rating (0 to 100 scale) [13]: 20; Ryegrass, Italian plant response rating [13]: 10; Barnyardgrass plant response rating (0 to 100 scale) [14]: 20; Barnyardgrass plant response rating [14]: 20; Pigweed plant response rating (0 to 100 scale) [15]: 60; Pigweed plant response rating [15]: 20; Blackgrass plant response rating (0 to 100 scale) [16]: 30; Blackgrass plant response rating [16]: 10; Foxtail, Giant plant response rating (0 to 100 scale) [17]: 30; Foxtail, Giant plant response rating [17]: 10; Galium plant response rating (0 to 100 scale) [18]: 90; Galium plant response rating [18]: 80
CO/N=C(\c1c(C)cccc1F)c1c(O)c(C)nn(C)c1=O [Compound 39]	0	30	0	0	0	0	0	0	0	0	0	0	0	0	0	0	60	0	20	0	Kochia plant response rating (0 to 100 scale) (kochia (Kochia scoparia) [11]): 0; Kochia plant response rating (kochia (Kochia scoparia) [11]): 0; Wheat plant response rating (0 to 100 scale) [12]: 10; Wheat plant response rating [12]: 0; Ryegrass, Italian plant response rating (0 to 100 scale) [13]: 0; Ryegrass, Italian plant response rating [13]: 0; Barnyardgrass plant response rating (0 to 100 scale) [14]: 10; Barnyardgrass plant response rating [14]: 0; Pigweed plant response rating (0 to 100 scale) [15]: 10; Pigweed plant response rating [15]: 0; Blackgrass plant response rating (0 to 100 scale) [16]: 0; Blackgrass plant response rating [16]: 0; Foxtail, Giant plant response rating (0 to 100 scale) [17]: 0; Foxtail, Giant plant response rating [17]: 0; Galium plant response rating (0 to 100 scale) [18]: 70; Galium plant response rating [18]: 40
CON=C(c1c(O)c(C)nn(C)c1=O)c1ccc(Cl)c2ccccc12 [Compound 40]	40	80	0	10	20	60	30	60	30	60	50	90	0	0	0	0	80	70	10	0	Kochia plant response rating (0 to 100 scale) (kochia (Kochia scoparia) [11]): 40; Kochia plant response rating (kochia (Kochia scoparia) [11]): 10; Wheat plant response rating (0 to 100 scale) [12]: 50; Wheat plant response rating [12]: 20; Ryegrass, Italian plant response rating (0 to 100 scale) [13]: 90; Ryegrass, Italian plant response rating [13]: 50; Barnyardgrass plant response rating (0 to 100 scale) [14]: 30; Barnyardgrass plant response rating [14]: 30; Pigweed plant response rating (0 to 100 scale) [15]: 40; Pigweed plant response rating [15]: 10; Blackgrass plant response rating (0 to 100 scale) [16]: 80; Blackgrass plant response rating [16]: 70; Foxtail, Giant plant response rating (0 to 100 scale) [17]: 50; Foxtail, Giant plant response rating [17]: 10; Galium plant response rating (0 to 100 scale) [18]: 100; Galium plant response rating [18]: 70
CON=C(c1ccc(F)cc1C)c1c(O)c(C)nn(C)c1=O [Compound 41]	0	80	0	0	0	20	0	10	0	80	0	0	0	0	0	0	60	30	0	0	Kochia plant response rating (0 to 100 scale) (kochia (Kochia scoparia) [11]): 60; Kochia plant response rating (kochia (Kochia scoparia) [11]): 20; Wheat plant response rating (0 to 100 scale) [12]: 20; Wheat plant response rating [12]: 0; Ryegrass, Italian plant response rating (0 to 100 scale) [13]: 60; Ryegrass, Italian plant response rating [13]: 0; Barnyardgrass plant response rating (0 to 100 scale) [14]: 0; Barnyardgrass plant response rating [14]: 0; Pigweed plant response rating (0 to 100 scale) [15]: 90; Pigweed plant response rating [15]: 40; Blackgrass plant response rating (0 to 100 scale) [16]: 0; Blackgrass plant response rating [16]: 0; Foxtail, Giant plant response rating (0 to 100 scale) [17]: 0; Foxtail, Giant plant response rating [17]: 0; Galium plant response rating (0 to 100 scale) [18]: 70; Galium plant response rating [18]: 70
